In paper PMC6437697 (Journal of Medicinal Chemistry, 2019):

Tests used:
Assay in all cases: KINOMEscan
Type in all cases: binding
Settings in all cases: read-out: % control activity remaining
CDK4-cyclinD3 = molecular target: T1, CDK4-cyclinD3 (Homo sapiens, UniProt P11802)
T1 construct: purchased Eurofins DiscoverX KINOMEscan

CLK4 = molecular target: T2, CLK4 (Homo sapiens, UniProt Q9HAZ1)
T2 construct: purchased Eurofins DiscoverX KINOMEscan

EGFR(L747-T751del,Sins) = molecular target: T3, EGFR(L747-T751del,Sins) (Homo sapiens, UniProt P00533, DEL747-750/T751S)
T3 construct: purchased Eurofins DiscoverX KINOMEscan
T3 sequence (P00533 with tags, fused parts or gaps DEL747-750/T751S limits assumed): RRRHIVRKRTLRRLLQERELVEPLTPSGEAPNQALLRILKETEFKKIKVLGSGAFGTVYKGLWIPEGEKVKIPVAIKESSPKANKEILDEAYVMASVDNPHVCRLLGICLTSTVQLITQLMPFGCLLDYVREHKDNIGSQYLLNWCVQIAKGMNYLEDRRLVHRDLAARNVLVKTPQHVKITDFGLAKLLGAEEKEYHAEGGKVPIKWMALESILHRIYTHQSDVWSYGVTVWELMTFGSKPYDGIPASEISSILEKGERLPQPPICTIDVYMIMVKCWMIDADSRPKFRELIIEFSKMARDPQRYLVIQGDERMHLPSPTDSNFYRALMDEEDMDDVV

IRAK1 = molecular target: T4, IRAK1 (Homo sapiens, UniProt P51617)
T4 construct: purchased Eurofins DiscoverX KINOMEscan
T4 sequence (P51617 whole entry): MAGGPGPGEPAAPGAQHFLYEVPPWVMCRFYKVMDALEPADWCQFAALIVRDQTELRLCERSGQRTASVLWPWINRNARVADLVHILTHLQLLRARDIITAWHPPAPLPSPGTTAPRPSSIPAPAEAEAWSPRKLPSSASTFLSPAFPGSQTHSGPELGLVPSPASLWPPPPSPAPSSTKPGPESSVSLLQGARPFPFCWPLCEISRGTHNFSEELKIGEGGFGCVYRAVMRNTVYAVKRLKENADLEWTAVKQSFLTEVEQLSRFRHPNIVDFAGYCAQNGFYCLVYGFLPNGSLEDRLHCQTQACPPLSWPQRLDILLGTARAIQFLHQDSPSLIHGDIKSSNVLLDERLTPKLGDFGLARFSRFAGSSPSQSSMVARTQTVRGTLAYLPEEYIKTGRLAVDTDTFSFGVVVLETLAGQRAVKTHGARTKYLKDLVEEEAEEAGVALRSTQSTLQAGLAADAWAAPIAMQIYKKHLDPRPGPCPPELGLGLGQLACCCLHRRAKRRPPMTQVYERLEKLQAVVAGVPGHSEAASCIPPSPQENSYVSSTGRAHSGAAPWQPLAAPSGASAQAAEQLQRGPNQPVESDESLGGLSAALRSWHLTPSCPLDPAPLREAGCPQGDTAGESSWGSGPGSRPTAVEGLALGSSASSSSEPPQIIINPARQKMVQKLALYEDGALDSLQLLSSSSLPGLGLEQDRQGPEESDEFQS

MAP4K2 = molecular target: T5, MAP4K2 (Homo sapiens, UniProt Q12851)
T5 construct: purchased Eurofins DiscoverX KINOMEscan
T5 sequence (Q12851 1-820): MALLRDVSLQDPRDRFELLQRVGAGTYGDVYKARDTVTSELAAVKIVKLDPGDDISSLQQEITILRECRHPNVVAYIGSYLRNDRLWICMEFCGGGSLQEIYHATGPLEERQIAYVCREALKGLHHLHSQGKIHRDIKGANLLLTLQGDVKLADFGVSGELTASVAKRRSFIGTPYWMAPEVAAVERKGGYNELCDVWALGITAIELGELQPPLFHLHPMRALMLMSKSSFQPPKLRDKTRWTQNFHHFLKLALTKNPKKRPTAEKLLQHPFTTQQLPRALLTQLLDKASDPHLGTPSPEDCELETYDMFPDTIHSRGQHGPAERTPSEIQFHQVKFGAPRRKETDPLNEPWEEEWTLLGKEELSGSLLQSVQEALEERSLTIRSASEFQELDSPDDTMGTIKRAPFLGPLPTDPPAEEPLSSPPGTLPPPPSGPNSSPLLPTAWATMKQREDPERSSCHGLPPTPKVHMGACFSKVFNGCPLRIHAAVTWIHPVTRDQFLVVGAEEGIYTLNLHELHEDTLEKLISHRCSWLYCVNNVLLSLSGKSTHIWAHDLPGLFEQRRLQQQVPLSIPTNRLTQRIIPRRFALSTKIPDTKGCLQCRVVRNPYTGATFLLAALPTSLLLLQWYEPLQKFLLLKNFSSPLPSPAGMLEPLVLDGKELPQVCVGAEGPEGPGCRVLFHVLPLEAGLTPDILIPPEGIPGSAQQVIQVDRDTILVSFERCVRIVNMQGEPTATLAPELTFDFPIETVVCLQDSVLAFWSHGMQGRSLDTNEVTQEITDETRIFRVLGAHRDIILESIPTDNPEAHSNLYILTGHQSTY

MST1 = molecular target: T6, MST1 (Homo sapiens, UniProt Q13043)
T6 construct: purchased Eurofins DiscoverX KINOMEscan
T6 sequence (Q13043 1-487): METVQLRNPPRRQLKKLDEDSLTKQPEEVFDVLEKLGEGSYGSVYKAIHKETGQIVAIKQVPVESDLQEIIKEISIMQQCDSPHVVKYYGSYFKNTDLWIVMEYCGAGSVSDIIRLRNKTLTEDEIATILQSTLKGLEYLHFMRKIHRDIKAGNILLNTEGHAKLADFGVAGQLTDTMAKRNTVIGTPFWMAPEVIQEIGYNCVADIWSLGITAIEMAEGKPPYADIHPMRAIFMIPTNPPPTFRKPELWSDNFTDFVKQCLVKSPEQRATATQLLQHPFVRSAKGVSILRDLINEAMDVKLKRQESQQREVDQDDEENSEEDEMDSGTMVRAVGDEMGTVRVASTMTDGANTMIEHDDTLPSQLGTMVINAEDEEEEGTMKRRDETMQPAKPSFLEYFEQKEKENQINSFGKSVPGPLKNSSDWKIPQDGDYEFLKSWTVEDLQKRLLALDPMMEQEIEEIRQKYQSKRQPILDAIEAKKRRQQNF

NEK7 = molecular target: T7, NEK7 (Homo sapiens, UniProt Q8TDX7)
T7 construct: purchased Eurofins DiscoverX KINOMEscan
T7 sequence (Q8TDX7 whole entry): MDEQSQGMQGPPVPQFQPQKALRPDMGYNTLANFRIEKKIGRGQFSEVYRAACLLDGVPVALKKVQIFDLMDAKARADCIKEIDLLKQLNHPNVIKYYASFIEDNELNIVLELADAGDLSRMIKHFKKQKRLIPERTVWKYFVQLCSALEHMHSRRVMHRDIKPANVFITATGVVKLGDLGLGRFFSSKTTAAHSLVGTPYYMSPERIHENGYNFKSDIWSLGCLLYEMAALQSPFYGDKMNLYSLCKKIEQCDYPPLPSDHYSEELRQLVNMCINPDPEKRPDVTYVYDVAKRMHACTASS

PAK4 = molecular target: T8, PAK4 (Homo sapiens, UniProt O96013)
T8 construct: purchased Eurofins DiscoverX KINOMEscan
T8 sequence (O96013 whole entry): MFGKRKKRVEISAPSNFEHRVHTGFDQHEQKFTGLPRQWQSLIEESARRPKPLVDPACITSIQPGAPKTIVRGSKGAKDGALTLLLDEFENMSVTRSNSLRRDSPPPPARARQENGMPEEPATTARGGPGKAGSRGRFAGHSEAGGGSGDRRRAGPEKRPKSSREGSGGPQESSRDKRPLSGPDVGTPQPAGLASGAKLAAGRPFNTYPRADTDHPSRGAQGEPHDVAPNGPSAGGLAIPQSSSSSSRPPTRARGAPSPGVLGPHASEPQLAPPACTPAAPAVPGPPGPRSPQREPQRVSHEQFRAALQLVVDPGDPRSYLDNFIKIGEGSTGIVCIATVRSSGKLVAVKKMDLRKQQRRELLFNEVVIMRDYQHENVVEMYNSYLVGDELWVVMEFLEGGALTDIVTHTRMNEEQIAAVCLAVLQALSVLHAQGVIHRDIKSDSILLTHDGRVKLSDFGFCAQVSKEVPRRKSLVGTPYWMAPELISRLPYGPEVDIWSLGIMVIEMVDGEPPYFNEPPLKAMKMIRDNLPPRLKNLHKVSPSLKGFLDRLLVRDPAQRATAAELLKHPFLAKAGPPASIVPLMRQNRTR

PIK3CA(E545A) = molecular target: T9, PIK3CA(E545A) (Homo sapiens, UniProt P42336, E545A)
T9 construct: purchased Eurofins DiscoverX KINOMEscan
T9 sequence (P42336 whole entry E545A): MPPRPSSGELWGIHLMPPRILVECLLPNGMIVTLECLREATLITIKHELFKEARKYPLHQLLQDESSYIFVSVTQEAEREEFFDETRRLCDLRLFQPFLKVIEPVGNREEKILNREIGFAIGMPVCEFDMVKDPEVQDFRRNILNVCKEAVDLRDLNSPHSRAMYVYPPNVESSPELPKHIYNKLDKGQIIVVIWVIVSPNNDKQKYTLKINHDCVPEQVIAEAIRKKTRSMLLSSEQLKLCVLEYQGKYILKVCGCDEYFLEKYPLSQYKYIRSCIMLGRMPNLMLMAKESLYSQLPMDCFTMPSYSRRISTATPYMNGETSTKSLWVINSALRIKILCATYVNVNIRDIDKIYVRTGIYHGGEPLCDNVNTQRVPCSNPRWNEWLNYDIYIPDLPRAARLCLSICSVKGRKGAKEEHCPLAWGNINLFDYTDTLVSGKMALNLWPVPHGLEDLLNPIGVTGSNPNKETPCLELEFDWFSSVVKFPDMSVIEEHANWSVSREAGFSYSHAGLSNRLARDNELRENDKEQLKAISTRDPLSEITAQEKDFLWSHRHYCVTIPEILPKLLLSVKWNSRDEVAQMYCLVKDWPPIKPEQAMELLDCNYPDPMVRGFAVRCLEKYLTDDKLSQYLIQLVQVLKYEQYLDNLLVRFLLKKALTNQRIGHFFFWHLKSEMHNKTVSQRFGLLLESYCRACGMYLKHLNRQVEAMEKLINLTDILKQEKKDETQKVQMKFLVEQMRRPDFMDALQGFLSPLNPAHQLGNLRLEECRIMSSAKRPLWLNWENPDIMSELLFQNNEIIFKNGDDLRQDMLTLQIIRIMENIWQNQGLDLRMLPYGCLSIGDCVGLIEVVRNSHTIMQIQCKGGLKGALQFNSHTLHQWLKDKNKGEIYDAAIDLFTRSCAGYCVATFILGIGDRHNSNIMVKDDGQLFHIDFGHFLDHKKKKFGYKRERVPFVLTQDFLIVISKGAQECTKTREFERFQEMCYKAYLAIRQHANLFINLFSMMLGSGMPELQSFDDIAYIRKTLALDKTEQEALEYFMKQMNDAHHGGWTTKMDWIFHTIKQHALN

PIK3CA(E545K) = molecular target: T10, PIK3CA(E545K) (Homo sapiens, UniProt P42336, E545K)
T10 construct: purchased Eurofins DiscoverX KINOMEscan
T10 sequence (P42336 whole entry E545K): as the sequence (P42336 whole entry E545A) above, with A545K counted along it

PRKR = molecular target: T11, PRKR (Homo sapiens, UniProt P19525)
T11 construct: purchased Eurofins DiscoverX KINOMEscan
T11 sequence (P19525 whole entry): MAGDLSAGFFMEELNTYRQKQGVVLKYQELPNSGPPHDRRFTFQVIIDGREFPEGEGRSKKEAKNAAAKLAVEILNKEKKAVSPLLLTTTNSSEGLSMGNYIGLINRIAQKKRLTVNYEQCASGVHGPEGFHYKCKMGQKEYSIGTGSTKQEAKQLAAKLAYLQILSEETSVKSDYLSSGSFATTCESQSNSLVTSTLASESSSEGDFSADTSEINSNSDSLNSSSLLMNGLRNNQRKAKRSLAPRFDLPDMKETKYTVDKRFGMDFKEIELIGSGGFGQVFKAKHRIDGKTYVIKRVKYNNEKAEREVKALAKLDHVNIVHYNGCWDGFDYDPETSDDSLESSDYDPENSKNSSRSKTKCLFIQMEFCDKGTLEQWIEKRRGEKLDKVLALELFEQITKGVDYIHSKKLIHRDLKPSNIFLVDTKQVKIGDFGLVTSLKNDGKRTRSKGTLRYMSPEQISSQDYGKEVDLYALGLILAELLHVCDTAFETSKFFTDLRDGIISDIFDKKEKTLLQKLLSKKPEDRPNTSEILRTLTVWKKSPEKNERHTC

SNARK = molecular target: T12, SNARK (Homo sapiens, UniProt Q9H093)
T12 construct: purchased Eurofins DiscoverX KINOMEscan
T12 sequence (Q9H093 1-628): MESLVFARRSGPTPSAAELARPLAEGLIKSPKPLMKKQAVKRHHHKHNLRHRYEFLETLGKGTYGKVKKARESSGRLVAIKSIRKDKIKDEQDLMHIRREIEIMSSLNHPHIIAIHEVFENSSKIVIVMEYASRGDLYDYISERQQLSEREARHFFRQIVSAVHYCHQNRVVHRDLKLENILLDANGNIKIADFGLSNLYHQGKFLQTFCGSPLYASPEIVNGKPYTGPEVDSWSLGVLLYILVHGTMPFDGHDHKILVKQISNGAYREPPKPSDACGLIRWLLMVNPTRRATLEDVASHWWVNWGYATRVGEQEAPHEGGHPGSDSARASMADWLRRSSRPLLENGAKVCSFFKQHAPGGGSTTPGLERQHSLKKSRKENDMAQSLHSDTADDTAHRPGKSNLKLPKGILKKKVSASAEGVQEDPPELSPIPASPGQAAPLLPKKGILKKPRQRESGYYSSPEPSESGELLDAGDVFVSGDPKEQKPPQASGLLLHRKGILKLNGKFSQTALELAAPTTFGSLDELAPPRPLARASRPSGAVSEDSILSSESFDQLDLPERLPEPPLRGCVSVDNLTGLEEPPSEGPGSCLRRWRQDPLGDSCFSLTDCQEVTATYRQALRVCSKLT

STK39 = molecular target: T13, STK39 (Homo sapiens, UniProt Q9UEW8)
T13 construct: purchased Eurofins DiscoverX KINOMEscan

T1 sequence (P11802 whole entry): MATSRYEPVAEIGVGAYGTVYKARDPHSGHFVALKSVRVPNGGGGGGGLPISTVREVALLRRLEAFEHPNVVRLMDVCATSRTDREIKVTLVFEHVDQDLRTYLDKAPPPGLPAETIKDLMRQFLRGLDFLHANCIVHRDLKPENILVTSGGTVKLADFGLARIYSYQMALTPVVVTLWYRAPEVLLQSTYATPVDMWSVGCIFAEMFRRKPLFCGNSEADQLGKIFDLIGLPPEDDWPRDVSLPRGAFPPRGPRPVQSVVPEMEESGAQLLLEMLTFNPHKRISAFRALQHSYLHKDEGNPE
T1 sequence (P30281 whole entry partner): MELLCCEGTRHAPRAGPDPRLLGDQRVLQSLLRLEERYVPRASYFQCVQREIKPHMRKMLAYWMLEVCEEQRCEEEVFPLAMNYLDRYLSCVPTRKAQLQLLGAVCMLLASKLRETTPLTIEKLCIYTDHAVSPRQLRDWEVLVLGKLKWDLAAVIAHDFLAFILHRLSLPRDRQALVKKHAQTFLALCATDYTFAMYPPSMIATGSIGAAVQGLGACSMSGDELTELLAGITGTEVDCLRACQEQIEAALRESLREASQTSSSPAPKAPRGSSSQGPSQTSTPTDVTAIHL
T2 sequence (Q9HAZ1 whole entry): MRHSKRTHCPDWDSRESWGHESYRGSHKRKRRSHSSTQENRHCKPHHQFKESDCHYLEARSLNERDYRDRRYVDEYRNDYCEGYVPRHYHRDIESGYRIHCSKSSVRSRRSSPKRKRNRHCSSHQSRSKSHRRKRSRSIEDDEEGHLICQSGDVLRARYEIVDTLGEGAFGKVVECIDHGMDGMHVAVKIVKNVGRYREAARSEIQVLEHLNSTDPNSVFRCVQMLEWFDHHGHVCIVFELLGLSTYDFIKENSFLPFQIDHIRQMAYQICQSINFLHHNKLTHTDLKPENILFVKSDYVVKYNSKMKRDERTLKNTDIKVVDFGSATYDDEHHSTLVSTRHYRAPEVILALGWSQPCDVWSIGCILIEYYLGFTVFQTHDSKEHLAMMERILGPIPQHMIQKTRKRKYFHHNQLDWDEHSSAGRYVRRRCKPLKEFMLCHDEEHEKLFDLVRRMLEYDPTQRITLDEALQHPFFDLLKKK

SMILES	remaining binding at 1 µM (CDK4-cyclinD3)	remaining binding at 1 µM (CLK4)	remaining binding at 1 µM (EGFR(L747-T751del,Sins))	remaining binding at 1 µM (IRAK1)	remaining binding at 1 µM (MAP4K2)	remaining binding at 1 µM (MST1)	remaining binding at 1 µM (NEK7)	remaining binding at 1 µM (PAK4)	remaining binding at 1 µM (PIK3CA(E545A))	remaining binding at 1 µM (PIK3CA(E545K))	remaining binding at 1 µM (PRKR)	remaining binding at 1 µM (SNARK)	remaining binding at 1 µM (STK39)
Clc1cc(NCC2CC2)c2ncc(-c3ccc4[nH]ncc4c3)n2n1 [compound 2, 6-Chloro-N-(cyclopropylmethyl)-3-(1H-indazol-5-yl)imidazo[1,2-b]pyridazin-8-amine]	78%	1.5%	88%	95%	99%	100%	97%	79%	88%	75%	97%	99%	88%
O=C(CN1CCOCC1)N[C@H]1CC[C@H](Nc2cc(Cl)nn3c(-c4ccc5[nH]ncc5c4)cnc23)CC1 [compound 26]	100%	2.1%	96%	45%	76%	100%	99%	93%	100%	80%	97%	73%	89%
CN1CCC(CNc2cc(Cl)nn3c(-c4cc5nc(Nc6ccccc6)[nH]c5cc4F)cnc23)CC1 [compound 31, 6-Chloro-3-(6-fluoro-2-(phenylamino)-1H-benzo[d]imidazol-5-yl)-N-((1-methylpiperidin-4-yl)methyl)imidazo[1,2-b]pyridazin-8-amine]	97%	20%	92%	89%	85%	95%	94%	86%	78%	68%	81%	88%	98%
